Measured values: patent US20220118070A1, “CANCER THERAPY BY MODIFYING NEOANTIGEN EXPRESSION” (priority 2019, published 2022)
Entries after “also recorded” stand apart in the source; their conditions may differ.

Tests used:
p73 transcripts = test: RT-PCR of p73 transcripts in treated cells; format: cell-based; settings: 5 μM; U2OS and HCT116 cells; FIG. 6A, FIGS. 10F and G
Procedure: A) U2OS cells were treated with 5 μM PRMT5 inhibitor (P5 inh) for 72 h where indicated, prior to ChIP analysis with anti-SUMO2/3 specific or control antibodies. Immunoprecipitated chromatin was analysed using primers specific for the E2F site in the p73 promoter (i). An RT-PCR was also performed to monitor the levels of p73 transcripts in the cell (ii). […] See also FIGS. 10F and 10G. F) U2OS cells were treated with 5 μM PRMT5 inhibitor (P5 inh) as indicated, prior to RNA extraction and qRT-PCR analysis with primers recognising total p73 or CDC6 transcripts as indicated (i). […] 1 μg of total RNA was used for cDNA synthesis. For standard mRNA analysis oligo(d)T20 (Invitrogen) was added. For splice variant analysis, RNA was DNAse treated (Sigma-Aldrich) prior to cDNA synthesis using random hexamers (Invitrogen). M-MLV reverse transcriptase (Promega) was used as per the manufacturer's instructions. qRT-PCR was carried out in triplicate using the indicated primer pairs and Brilliant III SYBR Green QPCR Master Mix (Stratagene) on an MX3005P (Agilent) QPCR instrument. Results were expressed as average (mean) fold change compared to control treatments using the ΔΔCt method from three biological repeat samples. GAPDH or actin primer sets were used as an internal calibrator. Error bars represent standard error unless otherwise indicated.

[1] = test system: chromatin-associated SUMOylation on the p73 promoter; test: ChIP with anti-SUMO2/3 antibody on the p73 promoter; format: cell-based; settings: 5 μM, 72 h; U2OS cells; FIG. 6A
Procedure: A) U2OS cells were treated with 5 μM PRMT5 inhibitor (P5 inh) for 72 h where indicated, prior to ChIP analysis with anti-SUMO2/3 specific or control antibodies. Immunoprecipitated chromatin was analysed using primers specific for the E2F site in the p73 promoter (i). An RT-PCR was also performed to monitor the levels of p73 transcripts in the cell (ii). […] See also FIGS. 10F and 10G. ChIP was performed as described previously [(29) or (30)]. Antibodies used for immunoprecipitation were as follows: anti-E2F1 (C-20), anti-HA (16B12), anti-HP1α (NB110-40623, Novus Biologicals; RRID: AB_714949), anti-SUMO2/3 (8A2; Abcam; RRID: AB_1658424), non-specific rabbit or mouse IgG. The recovered DNA was analysed in triplicate by real-time QPCR as described (30, 31) on a MX3005P QPCR system using Brilliant III SYBR Green QPCR Master Mix according to the manufacturer's instructions. Results were expressed as average (mean) fold change compared to IgG control treatments using the ΔΔCt method from triplicate biological repeat samples. Alternatively, a standard curve was generated to calculate ChIP/input signals that were subsequently used to generate fold change values compared to IgG control. Error bars represent standard error unless otherwise indicated.

[2] = test system: chromatin-associated HP1a; test: ChIP with anti-HP1a antibody on the p73 promoter; format: cell-based; settings: PRMT5 inhibitor 24 h or 48 h; U2OS cells; FIG. 6B
Procedure: B) As above, though cells were treated with the PRMT5 inhibitor (P5 inh) for 24 h or 48 h as indicated. ChIP analysis was performed with anti-HP1a specific or control antibodies (i).
C) U2OS cells were transfected with SENP7 siRNA or non-targeting siRNA (siNT) for 96 h as indicated. Cells were then prepared for ChIP analysis as above (i).
ChIP was performed as described previously [(29) or (30)]. Antibodies used for immunoprecipitation were as follows: anti-E2F1 (C-20), anti-HA (16B12), anti-HP1α (NB110-40623, Novus Biologicals; RRID: AB_714949), anti-SUMO2/3 (8A2; Abcam; RRID: AB_1658424), non-specific rabbit or mouse IgG. The recovered DNA was analysed in triplicate by real-time QPCR as described (30, 31) on a MX3005P QPCR system using Brilliant III SYBR Green QPCR Master Mix according to the manufacturer's instructions. Results were expressed as average (mean) fold change compared to IgG control treatments using the ΔΔCt method from triplicate biological repeat samples. Alternatively, a standard curve was generated to calculate ChIP/input signals that were subsequently used to generate fold change values compared to IgG control. Error bars represent standard error unless otherwise indicated.

[3] = test system: interaction between E2F1 and SENP7 V5 RNA; test: Anti-E2F1 RIP, co-immunoprecipitating SENP7 V5 transcripts by qRT-PCR; format: cell-based; settings: 5 μM; HCT116 cells; FIG. 4C
Procedure: C) HCT116 cells were treated with 5 μM PRMT5 inhibitor (P5 inh) where indicated prior to performing an anti-E2F1 RIP. Co-immunoprecipitating SENP7 V5 transcripts were analysed by qRT-PCR.
RNA was isolated from cells using TRIzol (Thermo Fisher) according to the manufacturer's instructions. 1 μg of total RNA was used for cDNA synthesis. For standard mRNA analysis oligo(d)T20 (Invitrogen) was added. For splice variant analysis, RNA was DNAse treated (Sigma-Aldrich) prior to cDNA synthesis using random hexamers (Invitrogen). M-MLV reverse transcriptase (Promega) was used as per the manufacturer's instructions. qRT-PCR was carried out in triplicate using the indicated primer pairs and Brilliant III SYBR Green QPCR Master Mix (Stratagene) on an MX3005P (Agilent) QPCR instrument. Results were expressed as average (mean) fold change compared to control treatments using the ΔΔCt method from three biological repeat samples. GAPDH or actin primer sets were used as an internal calibrator. Error bars represent standard error unless otherwise indicated.
Cells were washed once with PBS before UV cross-linking at 900 mJ/cm^2 using a Stratalinker (Stratagene). RIP lysis buffer (50 mM Tris-HCl pH 8.0, 150 mM NaCl, 1 mM MgCl2, 10% glycerol [v/v], 1% NP-40 [v/v], 1 mM DTT, 0.2 mM sodium orthovanadate and protease inhibitor cocktails) was added directly to the plate, on ice. […]

SENP7 RNA variants = test: qRT-PCR of SENP7 transcript variants in treated cells; format: cell-based; settings: 5 μM, 72 h; U2OS and HCT116 cells; FIGS. 4D and 4E
Procedure: D) U2OS cells were treated for 72 h with 5 μM PRMT5 inhibitor (P5 inh). RNA was then isolated from cells and analysed by qRT-PCR using primers targeting specific SENP7 transcript variants or total SENP7 RNA. […] E) As above, though the experiment was performed in HCT116 cells. n=4 RNA was isolated from cells using TRIzol (Thermo Fisher) according to the manufacturer's instructions. 1 μg of total RNA was used for cDNA synthesis. For standard mRNA analysis oligo(d)T20 (Invitrogen) was added. For splice variant analysis, RNA was DNAse treated (Sigma-Aldrich) prior to cDNA synthesis using random hexamers (Invitrogen). M-MLV reverse transcriptase (Promega) was used as per the manufacturer's instructions. qRT-PCR was carried out in triplicate using the indicated primer pairs and Brilliant III SYBR Green QPCR Master Mix (Stratagene) on an MX3005P (Agilent) QPCR instrument. Results were expressed as average (mean) fold change compared to control treatments using the ΔΔCt method from three biological repeat samples. GAPDH or actin primer sets were used as an internal calibrator. Error bars represent standard error unless otherwise indicated.

Mantle Cell Lymphoma = settings: in vitro and in vivo models of Mantle Cell Lymphoma; cited from earlier work
[4] = test system: interaction of snRNA with E2F1; test: Anti-E2F1 RNA immunoprecipitation (RIP), co-immunoprecipitating snRNA by qRT-PCR; format: cell-based; settings: 5 μM PRMT5 inhibitor; U2OS, HCT116 and MCF7 cells; FIGS. 3B, E and F
Procedure: B) U2OS cells were treated with 5 μM PRMT5 inhibitor (P5 inh) as indicated, prior to performing an anti-E2F1 RIP. Co-immunoprecipitating U6 (i) and U4 (ii) snRNAs were identified with specific primers by qRT-PCR. Input protein levels were determined by immunoblot (iii). n=3
E) HCT116 cells were treated with 5 μM PRMT5 inhibitor (P5 inh) where indicated, prior to performing an anti-E2F1 RIP. Co-immunoprecipitated U1 (i) and U6 (ii) snRNA were detected by qRT-PCR.
F) As above, though the experiment was performed in MCF7 cells.
A) U2OS cells (i) and HCT116 cells (ii) were transfected for 96 h with 25 nM non-targeting (siNT) or p100/TSN specific siRNA, prior to lysis in RIP buffer. Cell extracts were immunoprecipitated with E2F1 antibody and co-immunoprecipitating RNA was reverse transcribed prior to QPCR analysis with primers against U5 (i) and U6 (ii) snRNAs as indicated. Input protein levels were determined by immunoblot.
RNA was isolated from cells using TRIzol (Thermo Fisher) according to the manufacturer's instructions. 1 μg of total RNA was used for cDNA synthesis. For standard mRNA analysis oligo(d)T20 (Invitrogen) was added. […] Results were expressed as average (mean) fold change compared to control treatments using the ΔΔCt method from three biological repeat samples. […]

PRMT5 = PRMT5 (Homo sapiens, UniProt O14744); settings: cited from earlier work
Chain of PRMT5 (O14744 whole entry): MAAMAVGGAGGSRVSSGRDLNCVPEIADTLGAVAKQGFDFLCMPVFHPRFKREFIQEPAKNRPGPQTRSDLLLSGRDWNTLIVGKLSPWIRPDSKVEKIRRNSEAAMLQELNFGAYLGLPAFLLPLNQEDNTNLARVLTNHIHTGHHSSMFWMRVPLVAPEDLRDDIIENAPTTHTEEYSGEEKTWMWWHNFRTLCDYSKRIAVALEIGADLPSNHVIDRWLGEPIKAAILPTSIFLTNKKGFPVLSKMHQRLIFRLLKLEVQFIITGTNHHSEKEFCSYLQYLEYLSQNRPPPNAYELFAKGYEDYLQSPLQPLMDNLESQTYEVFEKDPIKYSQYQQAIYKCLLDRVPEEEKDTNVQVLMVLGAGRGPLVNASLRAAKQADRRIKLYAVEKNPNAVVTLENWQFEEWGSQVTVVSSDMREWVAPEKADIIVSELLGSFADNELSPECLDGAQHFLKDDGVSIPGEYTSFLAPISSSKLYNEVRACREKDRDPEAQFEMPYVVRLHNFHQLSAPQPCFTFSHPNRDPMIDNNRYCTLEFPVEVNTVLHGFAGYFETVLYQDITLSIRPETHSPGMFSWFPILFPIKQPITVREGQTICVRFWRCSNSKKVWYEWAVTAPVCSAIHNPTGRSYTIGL
Chain of PRMT5 (Q9BQA1 whole entry partner): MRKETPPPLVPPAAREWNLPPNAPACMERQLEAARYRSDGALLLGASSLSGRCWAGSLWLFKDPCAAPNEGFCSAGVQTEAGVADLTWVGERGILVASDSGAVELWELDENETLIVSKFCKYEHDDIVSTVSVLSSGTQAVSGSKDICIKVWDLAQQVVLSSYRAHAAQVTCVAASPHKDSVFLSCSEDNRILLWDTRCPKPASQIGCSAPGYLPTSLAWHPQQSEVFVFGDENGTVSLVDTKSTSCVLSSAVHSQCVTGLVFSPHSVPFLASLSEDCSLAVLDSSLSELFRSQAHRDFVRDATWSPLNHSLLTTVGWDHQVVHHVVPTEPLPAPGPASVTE

For `O=C(NC[C@H](O)CN1CCc2ccccc2C1)c1cc(NC2COC2)ncn1` [EPZ015666], the “levels of transcription (p73)” value (p73 transcripts) was “reduced levels”, the “chromatin-associated SUMOylation on the p73 promoter” value [1] was “increase” and the “association of HP1a with chromatin (p73 promoter)” value [2] was “increased association”. The “interaction between E2F1 and V5 RNA” value [3] was “reduced”, the “level of the SENP7 V5 RNA variant” value (SENP7 RNA variants) was “lower level; also recorded: down-regulates” and the “level of the other SENP7 RNA variants” value (SENP7 RNA variants) was “increased”. The antiproliferative effects (Mantle Cell Lymphoma) was “antiproliferative effects”, the “interaction of snRNA with E2F1” value [4] was “absent” and the “inhibition of PRMT5” value (PRMT5) was “potent and selective inhibitor”.
